The record followed here is ChEMBL document CHEMBL5120906, “Oxalierpenes A and B, Unusual Indole-Diterpenoid Derivatives with Antiviral Activity from a Marine-Derived Strain of the Fungus Penicillium oxalicum” (J Nat Prod, 2022).

A short description of series [1]: Cytotoxicity against human HEp-2 cells assessed as reduction in cell viability. The class given is toxicity, cell-based.
Series [2] in a line: Therapeutic index, ratio of CC50 for Cytotoxicity against human HEp-2 cells to IC50 for Antiviral activity against Respiratory syncytial virus infected in human HEp-2 cells. Type of series: toxicity, cell-based. Conditions: read-out: Ratio CC50/IC50.
In series [3] the test system is Respiratory syncytial virus. As to the kind of experiment: Antiviral activity against Respiratory syncytial virus infected in human HEp-2 cells assessed as inhibition of virus-induced cytopathic effect by CPE inhibition assay. Type of series: functional, organism-based.
The next series has as its system Influenza A virus. The experiment in a line: Antiviral activity against Influenza A virus A/WSN/33(H1N1) infected in dog MDCK cells assessed as inhibition of virus-induced cytopathic effect by CPE inhibition assay. Type of series: functional, organism-based. On the technique in general: Damage to the host cells serves as the signal in cytopathic effect assays.
Series [4] is described as follows: Cytotoxicity against dog MDCK cells assessed as reduction in cell viability. Type of series: toxicity, cell-based, Canis lupus familiaris.
Series [5] in a line: Therapeutic index, ratio of CC50 for Cytotoxicity against dog MDCK cells to IC50 for Antiviral activity against Influenza A virus A/WSN/33(H1N1) infected in dog MDCK cells. The class given is toxicity, cell-based. Conditions: read-out: Ratio CC50/IC50.

One may read the CC50 as the concentration that lowers cell viability or growth by half. What is called IC50 is the concentration at which inhibition is half-maximal. `NC(=O)c1ncn([C@@H]2O[C@H](CO)[C@@H](O)[C@H]2O)n1` [RIBAVIRIN]: the CC50 in series [1] is greater than 1000 µM. Further, in series [2], the selectivity ratio is greater than 54. The IC50 in series [3] amounted to 19 µM.
Regarding `CC1(C)C=C2C(=Cc3cc4c5c([nH]c4cc32)[C@@]2(C)[C@@H](CC[C@@]34O[C@@]6(O)[C@H](O)C(C)(C)O[C@H]6[C@@H]3C(=O)CC[C@]24C)C5)C(C)(C)O1`, the results for the CC50 in series [1] and in series [4] were 15 µM and 13 µM, respectively. In addition, the IC50 in the series with Influenza A virus was 3.7 µM; in series [3], 2.8 µM. Also, the selectivity ratio stood at 3.5 in series [5] and 5.5 in series [2].
Regarding `CC1(C)C=C2C(=Cc3cc4c5c([nH]c4cc32)[C@@]2(C)[C@@H](CCC3=C([C@@H]4OC(C)(C)[C@@H](O)C4=O)C(=O)CC[C@@]32C)C5)C(C)(C)O1`, the CC50 in series [1] is 31 µM; in series [4], 27 µM. The IC50 was determined as 9.4 µM with Influenza A virus and 6.7 µM in series [3]. Also, the selectivity ratio in series [5] is 2.8; in series [2], 4.6.
Take `NC(=O)c1nc(F)c[nH]c1=O` [FAVIPIRAVIR]: the CC50 in series [4] was greater than 1000 µM. Besides, the selectivity ratio in series [5] is greater than 28.
